From patent US20180015100A1, “COMBINATION PRODUCTS FOR THE TREATMENT OF BACTERIAL INFECTIONS AND METHODS OF PRODUCING OR DOSING OF SAME” (priority 2016, published 2018)

Columns and labels:
[1] = system: 385 Escherichia coli and 126 Klebsiella pneumoniae isolates; test: MIC, MIC50 and MIC90 by reference broth microdilution against 511 UTI/bloodstream isolates (USA and Europe 2014-2015); format: cell-based
[2] = system: AECO001; test: MIC of cephalosporins (Table 16); format: cell-based

SMILES: Nc1nc(/C(=C/CC(=O)O)C(=O)N[C@@H]2C(=O)N3C(C(=O)O)=CCS[C@H]23)cs1 [Ceftibuten, ceftibuten]
- cumulative % of isolates at MIC ([1]; MIC 0.06 μg/mL, All CTX-M-producing isolates (365)): (0.5) %
- cumulative % of isolates at MIC ([1]; MIC 0.06 μg/mL, E. coli (385)): (0.3) %
- cumulative % of isolates at MIC ([1]; MIC 0.06 μg/mL, Isolates producing CTX-M Group 9 (92)): (2.2) %
- cumulative % of isolates at MIC ([1]; MIC 0.06 μg/mL, Isolates producing SHV ESBL (18)): (16.7) %
- cumulative % of isolates at MIC ([1]; MIC 0.06 μg/mL, K pneumoniae (126)): (6.3) %
- cumulative % of isolates at MIC ([1]; MIC 0.5 μg/mL, All CTX-M-producing E. coli (294)): (10.5) %
- cumulative % of isolates at MIC ([1]; MIC 0.5 μg/mL, All CTX-M-producing K pneumoniae (71)): (7.0) %
- cumulative % of isolates at MIC ([1]; MIC 0.5 μg/mL, All CTX-M-producing isolates (365)): (9.9) %
- cumulative % of isolates at MIC ([1]; MIC 0.5 μg/mL, E. coli (385)): (10.4) %
- cumulative % of isolates at MIC ([1]; MIC 0.5 μg/mL, Enterobacteriaceae (511)): (10.8) %
- cumulative % of isolates at MIC ([1]; MIC 0.5 μg/mL, Isolates producing CTX-M Group 1 (276)): (3.6) %
- cumulative % of isolates at MIC ([1]; MIC 0.5 μg/mL, Isolates producing CTX-M Group 9 (92)): (28.3) %
- cumulative % of isolates at MIC ([1]; MIC 0.5 μg/mL, Isolates producing SHV ESBL (18)): (38.9) %
- cumulative % of isolates at MIC ([1]; MIC 0.5 μg/mL, K pneumoniae (126)): (11.9) %
- cumulative % of isolates at MIC ([1]; MIC 1 μg/mL, All CTX-M-producing E. coli (294)): (22.1) %
- cumulative % of isolates at MIC ([1]; MIC 1 μg/mL, All CTX-M-producing K pneumoniae (71)): (9.9) %
- cumulative % of isolates at MIC ([1]; MIC 1 μg/mL, All CTX-M-producing isolates (365)): (19.7) %
- cumulative % of isolates at MIC ([1]; MIC 1 μg/mL, E. coli (385)): (19.7) %
- cumulative % of isolates at MIC ([1]; MIC 1 μg/mL, Isolates producing CTX-M Group 1 (276)): (9.1) %
- cumulative % of isolates at MIC ([1]; MIC 1 μg/mL, Isolates producing CTX-M Group 9 (92)): (50.0) %
- cumulative % of isolates at MIC ([1]; MIC 1 μg/mL, Isolates producing SHV ESBL (18)): (55.6) %
- cumulative % of isolates at MIC ([1]; MIC 1 μg/mL, K pneumoniae (126)): (15.1) %
- cumulative % of isolates at MIC ([1]; MIC 2 μg/mL, All CTX-M-producing E. coli (294)): (34.4) %
- cumulative % of isolates at MIC ([1]; MIC 2 μg/mL, All CTX-M-producing K pneumoniae (71)): (15.5) %
- cumulative % of isolates at MIC ([1]; MIC 2 μg/mL, All CTX-M-producing isolates (365)): (30.7) %
- cumulative % of isolates at MIC ([1]; MIC 2 μg/mL, E. coli (385)): (30.4) %
- cumulative % of isolates at MIC ([1]; MIC 2 μg/mL, Isolates producing CTX-M Group 1 (276)): (15.2) %
- cumulative % of isolates at MIC ([1]; MIC 2 μg/mL, Isolates producing CTX-M Group 9 (92)): (76.1) %
- cumulative % of isolates at MIC ([1]; MIC 2 μg/mL, Isolates producing SHV ESBL (18)): (61.1) %
- cumulative % of isolates at MIC ([1]; MIC 2 μg/mL, K pneumoniae (126)): (19.0) %
- cumulative % of isolates at MIC ([1]; MIC 4 μg/mL, All CTX-M-producing E. coli (294)): (45.6) %
- cumulative % of isolates at MIC ([1]; MIC 4 μg/mL, All CTX-M-producing K pneumoniae (71)): (32.4) %
- cumulative % of isolates at MIC ([1]; MIC 4 μg/mL, All CTX-M-producing isolates (365)): (43.0) %
- cumulative % of isolates at MIC ([1]; MIC 4 μg/mL, E. coli (385)): (40.0) %
- cumulative % of isolates at MIC ([1]; MIC 4 μg/mL, Isolates producing CTX-M Group 1 (276)): (28.3) %
- cumulative % of isolates at MIC ([1]; MIC 4 μg/mL, Isolates producing CTX-M Group 9 (92)): (87.0) %
- cumulative % of isolates at MIC ([1]; MIC 4 μg/mL, Isolates producing SHV ESBL (18)): (66.7) %
- cumulative % of isolates at MIC ([1]; MIC 4 μg/mL, K pneumoniae (126)): (31.7) %
- cumulative % of isolates at MIC ([1]; MIC 8 μg/mL, All CTX-M-producing E. coli (294)): (66.3) %
- cumulative % of isolates at MIC ([1]; MIC 8 μg/mL, All CTX-M-producing K pneumoniae (71)): (56.3) %
- cumulative % of isolates at MIC ([1]; MIC 8 μg/mL, All CTX-M-producing isolates (365)): (64.4) %
- cumulative % of isolates at MIC ([1]; MIC 8 μg/mL, E. coli (385)): (56.9) %
- cumulative % of isolates at MIC ([1]; MIC 8 μg/mL, Isolates producing CTX-M Group 1 (276)): (55.8) %
- cumulative % of isolates at MIC ([1]; MIC 8 μg/mL, Isolates producing CTX-M Group 9 (92)): (89.1) %
- cumulative % of isolates at MIC ([1]; MIC 8 μg/mL, Isolates producing SHV ESBL (18)): (72.2) %
- cumulative % of isolates at MIC ([1]; MIC 8 μg/mL, K pneumoniae (126)): (53.2) %
- cumulative % of isolates at MIC ([1]; MIC 16 μg/mL, All CTX-M-producing E. coli (294)): (83.0) %
- cumulative % of isolates at MIC ([1]; MIC 16 μg/mL, All CTX-M-producing K pneumoniae (71)): (73.2) %
- cumulative % of isolates at MIC ([1]; MIC 16 μg/mL, All CTX-M-producing isolates (365)): (81.1) %
- cumulative % of isolates at MIC ([1]; MIC 16 μg/mL, E. coli (385)): (73.0) %
- cumulative % of isolates at MIC ([1]; MIC 16 μg/mL, Isolates producing CTX-M Group 1 (276)): (76.8) %
- cumulative % of isolates at MIC ([1]; MIC 16 μg/mL, Isolates producing CTX-M Group 9 (92)): (92.4) %
- cumulative % of isolates at MIC ([1]; MIC 16 μg/mL, Isolates producing SHV ESBL (18)): (94.4) %
- cumulative % of isolates at MIC ([1]; MIC 16 μg/mL, K pneumoniae (126)): (69.0) %
- cumulative % of isolates at MIC ([1]; MIC >[…] μg/mL, All CTX-M-producing E. coli (294)): (100.0) %
- cumulative % of isolates at MIC ([1]; MIC >[…] μg/mL, All CTX-M-producing K pneumoniae (71)): (100.0) %
- cumulative % of isolates at MIC ([1]; MIC >[…] μg/mL, All CTX-M-producing isolates (365)): (100.0) %
- cumulative % of isolates at MIC ([1]; MIC >[…] μg/mL, E. coli (385)): (100.0) %
- cumulative % of isolates at MIC ([1]; MIC >[…] μg/mL, Isolates producing CTX-M Group 1 (276)): (100.0) %
- cumulative % of isolates at MIC ([1]; MIC >[…] μg/mL, Isolates producing CTX-M Group 9 (92)): (100.0) %
- cumulative % of isolates at MIC ([1]; MIC >[…] μg/mL, Isolates producing SHV ESBL (18)): (100.0) %
- cumulative % of isolates at MIC ([1]; MIC >[…] μg/mL, K pneumoniae (126)): (100.0) %
- cumulative % of isolates at MIC ([1]; MIC […] μg/mL, All CTX-M-producing E. coli (294)): (91.8) %
- cumulative % of isolates at MIC ([1]; MIC […] μg/mL, All CTX-M-producing K pneumoniae (71)): (83.1) %
- cumulative % of isolates at MIC ([1]; MIC […] μg/mL, All CTX-M-producing isolates (365)): (90.1) %
- cumulative % of isolates at MIC ([1]; MIC […] μg/mL, E. coli (385)): (82.1) %
- cumulative % of isolates at MIC ([1]; MIC […] μg/mL, Isolates producing CTX-M Group 1 (276)): (87.7) %
- cumulative % of isolates at MIC ([1]; MIC […] μg/mL, Isolates producing CTX-M Group 9 (92)): (95.7) %
- cumulative % of isolates at MIC ([1]; MIC […] μg/mL, Isolates producing SHV ESBL (18)): (94.4) %
- cumulative % of isolates at MIC ([1]; MIC […] μg/mL, K pneumoniae (126)): (79.4) %
- cumulative % of isolates at MIC ([1]; MIC […], Enterobacteriaceae (511)): (5.1) %
- MIC [2]: 0.5 µg/mL
